According to publication PMC3340383, “Synthesis and Evaluation of a Series of 2-Substituted-5-Thiopropylpiperazine (Piperidine)-1,3,4-Oxadiazoles Derivatives as Atypical Antipsychotics” (PLoS ONE, 2012):
Marks after values point to notes of the source that are not given here.

Legend:
[1] = biological target: T1, serotonin 5-HT2A receptor (Rattus norvegicus, UniProt P14842); assay: 5-HT2A binding assay ([3H]ketanserin, rat brain cortex); settings: [3H]ketanserin, rat brain cortex; mean of three experiments; >10000 marked b: Ki not calculated, inhibition at 10 µM too low; read-out: Ki±SEM, 5HT2A
T1 construct: Rat cerebral cortex was homogenized in 20 volumes of ice-cold Tris-HCl buffer; from tissue; host or cells: rat brain (cerebral) cortex
T1 sequence (P14842 whole entry): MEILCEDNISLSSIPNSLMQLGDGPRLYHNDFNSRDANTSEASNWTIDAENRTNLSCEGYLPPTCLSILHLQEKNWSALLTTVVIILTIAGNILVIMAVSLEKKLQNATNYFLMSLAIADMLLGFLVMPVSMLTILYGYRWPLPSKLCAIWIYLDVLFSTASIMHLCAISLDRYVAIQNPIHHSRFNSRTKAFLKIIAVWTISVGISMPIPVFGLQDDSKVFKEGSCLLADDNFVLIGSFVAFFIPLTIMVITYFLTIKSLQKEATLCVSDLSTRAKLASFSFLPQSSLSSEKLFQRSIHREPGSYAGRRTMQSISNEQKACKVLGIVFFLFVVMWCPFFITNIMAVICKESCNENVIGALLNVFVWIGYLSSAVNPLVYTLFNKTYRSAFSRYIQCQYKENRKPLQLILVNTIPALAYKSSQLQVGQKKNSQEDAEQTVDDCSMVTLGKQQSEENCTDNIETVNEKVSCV
Method: (§1) All the new compounds were dissolved in 5% DMSO. The following specific radioligands and tissue sources were used: (a) serotonin 5-HT1A receptor, [^3H]8-OH-DPAT, rat brain cortex; (b) serotonin 5-HT2A receptor, [^3H]ketanserin, rat brain cortex; (c) serotonin 5-HT2C receptor, [^3H]mesulergine, rat brain cortex; (d) dopamine D2 receptor, [^3H]spiperone, rat striatum; (e) dopamine D3 receptor, [^3H]spiperone, rat olfactory tubercle (f) histamine H1 receptor, [^3H] pyrilamine, guinea pig cerebellum.
(§2) Total binding was determined in the absence of no-specific binding and compounds. Specific binding was determined in the presence of compounds. Non-specific binding was determined as the difference between total and specific binding.
(§3) Percentage of inhibition (%) = (total binding − specific binding)×100%/(total binding − nonspecific binding).
(§4) Ki values were calculated based on the Cheng and Prussoff equation: Ki = IC50/(1+C/Kd) where C represents the concentration of the hot ligand used and Kd its receptor dissociation constant were calculated for each labeled ligand. Mean Ki values and SEM were reported for at least three independent experiments.
Rat cerebral cortex was homogenized in 20 volumes of ice-cold Tris-HCl buffer (50 mM, pH 7.7) using an ULTRA TURAX homogeniser, and centrifuged at 32000 g for 20 min. The resulting pellet was resuspended in the same quantity of the buffer centrifuged for 20 min. The final pellet was resuspended in 50 volumes of the Tris-HCl buffer.
Total binding each assay tube was added 900 µL of the tissue suspension, 50 µL of 0.6 nM [^3H]ketanserin (60.0 Ci/mmol, Perkin Elmer Life Sciences, Boston, MA, USA), 50 µL Tris-HCl buffer.
Non-specific binding each assay tube was added 900 µL of the tissue suspension, 50 µL of 0.6 nM [^3H]ketanserin, 50 µL of 10 µM methisergide.
Specific binding each assay tube was added 900 µL of the tissue suspension, 50 µL of 0.6 nM [^3H]ketanserin, […] of new compounds or reference drug.
(§5) The incubation was followed by a rapid vacuum filtration through Whatman GF/B glass filters, and the filtrates were washed twice with 5 mL cold buffer and transferred to scintillation vials. Scintillation fluid (3.0 mL) was added and the radioactivity bound was measured using a Beckman LS 6500 liquid scintillation counter.

[2] = biological target: T2, serotonin 5-HT2C receptor (Rattus norvegicus, UniProt P08909); assay: 5-HT2C binding assay ([3H]mesulergine, rat brain cortex); settings: mean of three experiments, read-out: Ki±SEM, 5HT2C
T2 construct: Rat cerebral cortex was homogenized in 20 volumes of ice-cold Tris-HCl buffer; from tissue; host or cells: rat brain (cerebral) cortex
T2 sequence (P08909 33-460): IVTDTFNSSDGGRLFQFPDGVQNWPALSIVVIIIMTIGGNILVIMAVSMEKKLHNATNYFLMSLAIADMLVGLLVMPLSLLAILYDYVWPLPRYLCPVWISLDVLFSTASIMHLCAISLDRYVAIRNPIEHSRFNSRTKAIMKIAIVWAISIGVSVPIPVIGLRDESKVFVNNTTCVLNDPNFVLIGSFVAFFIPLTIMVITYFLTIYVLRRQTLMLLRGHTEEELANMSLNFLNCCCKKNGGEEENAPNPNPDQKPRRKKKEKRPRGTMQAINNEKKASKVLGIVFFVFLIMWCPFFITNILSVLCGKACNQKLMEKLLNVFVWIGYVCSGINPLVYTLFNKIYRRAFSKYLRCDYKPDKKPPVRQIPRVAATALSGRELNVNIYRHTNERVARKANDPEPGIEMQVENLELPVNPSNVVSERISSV
Method: as §1
Total binding was determined in the absence of no-specific binding and compounds. Specific binding was determined in the presence of compounds. Non-specific binding was determined as the difference between total and specific binding. […]
Ki values were calculated based on the Cheng and Prussoff equation: Ki = IC50/(1+C/Kd) where C represents the concentration of the hot ligand used and Kd its receptor dissociation constant were calculated for each labeled ligand. […]
The resulting pellet was resuspended in the same quantity of the buffer centrifuged for 20 min. […]
as §5

dopamine D2 receptor = biological target: T3, dopamine D2 receptor (Rattus norvegicus, UniProt P61169); assay: D2 dopaminergic binding assay ([3H]spiperone, rat striatum); settings: [3H]spiperone, rat striatum; mean of three experiments; >10000 marked b: Ki not calculated, inhibition at 10 µM too low; read-out: Ki±SEM, D2
T3 construct: Rat striatum was homogenized in 20 volumes of ice-cold 50 mM Tris-HCl buffer; from tissue; host or cells: rat striatum
T3 sequence (P61169 whole entry): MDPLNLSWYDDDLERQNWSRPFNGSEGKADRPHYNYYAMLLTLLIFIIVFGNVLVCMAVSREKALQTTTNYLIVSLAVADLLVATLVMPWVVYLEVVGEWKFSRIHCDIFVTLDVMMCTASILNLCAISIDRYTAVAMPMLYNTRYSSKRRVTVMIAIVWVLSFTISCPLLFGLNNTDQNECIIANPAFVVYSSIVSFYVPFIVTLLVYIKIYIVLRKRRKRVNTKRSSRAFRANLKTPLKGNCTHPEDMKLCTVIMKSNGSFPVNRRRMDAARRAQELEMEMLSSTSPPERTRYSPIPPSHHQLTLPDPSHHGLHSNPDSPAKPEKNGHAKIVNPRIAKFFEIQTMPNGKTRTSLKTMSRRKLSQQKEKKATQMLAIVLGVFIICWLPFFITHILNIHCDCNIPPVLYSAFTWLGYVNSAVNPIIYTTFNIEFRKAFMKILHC
Method: as §1, §2, §3, §4
Rat striatum was homogenized in 20 volumes of ice-cold 50 mM Tris-HCl buffer (pH 7.7) using an ULTRA TURAX homogeniser, and centrifuged twice for 10 min at 48,000 g with resuspension of the pellet in fresh buffer. The final pellet was resuspended in 50 mM ice-cold Tris-HCl containing 120 mM NaCl, 5 mM KCl, 2 mM CaCl2, 1 mM MgCl2, 0.1% ascorbic acid and 5 µM pargyline.
Total binding each assay tube was added 900 µL of the tissue suspension, 50 µL of 0.5 nM [^3H]spiperone (16.2 Ci/mmol; Perkin Elmer Life Sciences, Boston, MA, USA), 50 µL Tris-HCl buffer containing 120 mM NaCl, 5 mM KCl, 2 mM CaCl2, 1 mM MgCl2, 0.1% ascorbic acid and 5 µM pargyline.
Non-specific binding each assay tube was added 900 µL of the tissue suspension, 50 µL of 0.5 nM [^3H]spiperone, 50 µL of 10 µM (+)-butaclamol.
Specific binding each assay tube was added 900 µL of the tissue suspension, 50 µL of 0.5 nM [^3H]spiperone, 50 µL of new compounds or reference drug.
as §5

[3] = tested on: MK-801-induced hyperactivity in mice; assay: MK-801-induced hyperactivity; settings: mice, po; 95% confidence limits in parentheses
[4] = tested on: apomorphine-induced climbing behavior in mice; assay: Apomorphine-induced climbing; type: in vivo; settings: mice, po; 95% confidence limits in parentheses
Method: . […] . Animals were then challenged at 30 minutes post-injection with 1.0 mg/kg of the apomorphine in 0.9% NaCl+0.1% ascorbic acid, placed in cylindrical wire cages (12 cm in diameter, 14 cm in height), and observed for climbing behavior at 10, 20 and 30 min post dose. The climbing behaviour was scored as follows: 3–4 paws on the cage floor = 0 score; 2 and 3 paws on the cage = 1 score; 4 paws on the cage = 2 score.

## Fc1ccc2c(C3CCN(CCCSc4nnc(-c5cccc6ccccc56)o4)CC3)noc2c1 [Compound 22, 2-(3-(4-(6-fluorobenzo[d]isoxazol-3-yl)piperidin-1-yl)propylthio)-5-(naphthalen-1-yl)-1,3,4-oxadiazole]
[1]
  Ki: 1.1 ± 0.1 nM
[2]
  Ki: 861 ± 86.2 nM
Dopamine D2 receptor
  Ki: 23 ± 2.6 nM
[3]
  MK-801-induced hyperactivity ED50 (B): 3.58 (2.59–8.28) mg/kg
[4]
  Apomorphine-induced climbing ED50 (A): 3.68 (2.79–4.86) ^a mg/kg
